30 compounds from US20040224958A1, “Pyridopyrimidinone derivatives for treatment of neurodegenerative disease” (priority 2000, published 2004) can be followed below.

In data set [1] the target is Cdk5/p25 (Homo sapiens, UniProt Q00535). The experiment in a line: Cyclin-Dependent Kinase 5 (cdk5) Assay. The class given is biochemical. As to the method: Cyclin-Dependent Kinase 5 (cdk5) Assay
Enzyme assays for IC50 determinations and kinetic evaluation were performed in 96-well filter plates (Millipore MAPH NOB 10). […] All components except histone and ATP were added to wells, and the plate was placed on a shaker for 5 minutes. The reaction was started by adding histone and [^32P]ATP, and the plate was shaken at 30° C. for 45 minutes. The reaction was terminated by addition of 0.1 mL of 150 mM phosphoric acid. The plate was kept at 4° C. for 30 minutes to allow substrate to precipitate. The wells were then washed three times with 0.2 mL of 75 mM phosphoric acid and ^32P incorporation was determined with a beta plate counter (Wallac Inc, Gaithersburg, Md.).

The target of data set [2] is cdk4/D (Homo sapiens, UniProt P11802). Nature of the data set: Cyclin-Dependent Kinase 4 (cdk4) Assay. Type of data set: biochemical.
Data set [3] concerns the target cdk2/cyclinA (Homo sapiens, UniProt P24941). Nature of the data set: Cyclin-Dependent Kinase Assay cdk2/cyclinA.
Method: Cyclin-Dependent Kinase Assays (cdk2/cyclinE, cdk2/cyclinA, cdc2/cyclinB)
All components except the ATP were added to the wells, and the plate was placed on a plate mixer for 2 minutes. The reaction was begun by addition of [^32P]ATP, and the plate was incubated at 25° C. for 15 minutes. The reaction was terminated by addition of 0.1 mL of 20% TCA. The plate was kept at 4° C. for at least 1 hour to allow the substrate to precipitate. The wells were then washed five times with 0.2 mL of 10% TCA and ^32p incorporation determined with a beta plate counter (Wallac Inc., Gaithersburg, Md.).
Data set [4] deals with cdk2/cyclinE (Homo sapiens, UniProt P24941). Nature of the data set: Cyclin-Dependent Kinase Assay cdk2/cyclinE.
The target of data set [5] is cdc2/cyclinB (Homo sapiens, UniProt P06493). Nature of the data set: Cyclin-Dependent Kinase Assay cdc2/cyclinB.

Read-outs that look alike come from different tables or passages of the source.

cdk4/D, sequence (P11802 whole entry): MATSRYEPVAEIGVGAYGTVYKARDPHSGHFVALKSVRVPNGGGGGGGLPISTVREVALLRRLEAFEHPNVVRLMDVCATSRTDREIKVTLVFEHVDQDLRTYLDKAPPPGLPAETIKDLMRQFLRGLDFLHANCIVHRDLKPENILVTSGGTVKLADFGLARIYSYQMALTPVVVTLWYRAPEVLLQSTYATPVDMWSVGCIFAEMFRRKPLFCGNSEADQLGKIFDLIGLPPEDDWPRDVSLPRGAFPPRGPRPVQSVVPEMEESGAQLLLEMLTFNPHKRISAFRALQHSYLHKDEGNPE
cdk4/D, sequence (P24385 whole entry, further chain): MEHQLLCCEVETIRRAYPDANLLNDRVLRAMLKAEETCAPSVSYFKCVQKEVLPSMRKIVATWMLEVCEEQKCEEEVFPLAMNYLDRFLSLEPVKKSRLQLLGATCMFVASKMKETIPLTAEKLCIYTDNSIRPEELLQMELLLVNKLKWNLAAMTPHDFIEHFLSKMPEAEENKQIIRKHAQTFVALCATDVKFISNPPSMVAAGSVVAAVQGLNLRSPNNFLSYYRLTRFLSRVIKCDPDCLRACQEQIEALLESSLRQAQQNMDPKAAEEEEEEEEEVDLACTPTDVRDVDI
cdc2/cyclinB, sequence (P06493 whole entry): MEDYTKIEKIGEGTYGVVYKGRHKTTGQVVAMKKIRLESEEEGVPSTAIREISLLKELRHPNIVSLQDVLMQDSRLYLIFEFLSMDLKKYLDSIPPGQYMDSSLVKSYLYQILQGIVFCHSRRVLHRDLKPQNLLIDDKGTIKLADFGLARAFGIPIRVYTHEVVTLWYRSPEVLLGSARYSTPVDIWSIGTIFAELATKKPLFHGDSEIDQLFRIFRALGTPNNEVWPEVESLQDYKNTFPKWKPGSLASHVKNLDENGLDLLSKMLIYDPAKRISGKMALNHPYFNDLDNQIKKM
cdc2/cyclinB, sequence (P14635 whole entry, further chain): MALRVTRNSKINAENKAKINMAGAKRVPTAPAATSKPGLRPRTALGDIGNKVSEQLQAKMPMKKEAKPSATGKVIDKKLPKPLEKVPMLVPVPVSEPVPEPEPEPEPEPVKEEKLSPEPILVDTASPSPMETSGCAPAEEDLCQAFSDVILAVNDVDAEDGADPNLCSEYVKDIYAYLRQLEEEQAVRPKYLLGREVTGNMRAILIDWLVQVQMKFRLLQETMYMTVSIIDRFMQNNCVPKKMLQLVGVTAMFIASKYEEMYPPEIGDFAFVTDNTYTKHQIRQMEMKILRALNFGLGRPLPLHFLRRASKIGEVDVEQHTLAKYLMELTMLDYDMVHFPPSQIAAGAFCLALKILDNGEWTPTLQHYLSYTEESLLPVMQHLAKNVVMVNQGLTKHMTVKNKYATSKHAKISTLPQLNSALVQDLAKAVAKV

With “8-Ethyl-2-(pyrimidin-4-ylamino)-8H-pyrido[2,3-d]pyrimidin-7-one [Example 50]”, the IC50 turned out to be 27 nM in data set [1] (Table 1) and 2000 nM in data set [2] (Table 1, read-out: cdk4/D IC50).
For “8-Isopropyl-2-(4-methoxy-phenylamino)-8H-pyrido[2,3-d]pyrimidin-7-one [Example 622]”, the IC50 in data set [3] (read-out: Cdk2/A IC50, Table 3) turned out to be 392 nM; in data set [4] (read-out: Cdk2/E IC50, Table 3), 540 nM; in data set [1] (Table 3), 30 nM; in data set [2] (Table 3, read-out: Cdk4 IC50), 4080 nM.
The melting point is the temperature of the solid-liquid transition. As to `O=c1ccc2cnc(Nc3ccc(N4CCCCC4)cc3)nc2n1C1CCOC1` (racemic) [Example 200, 2-(4-Piperidin-1-yl-phenylamino)-8-(tetrahydro-furan-3-yl)-8H-pyrido[2,3-d]pyrimidin-7-one], the melting point lay within 181 to 182 °C. The IC50 in data set [3] (cdk2/A IC50, Table 1) turned out to be 285 nM. Also, in data set [5], the IC50 stood at 4340 nM. The IC50 in data set [4] (cdk2/E IC50, Table 1) was found to be 1900 nM. Further, the IC50 in data set [2] (Table 1, read-out: cdk4/D IC50) is 219 nM.
As to `O=c1ccc2cnc(Nc3ccc(N4CCCCC4)cc3)nc2n1[C@H]1C[C@H]2CC[C@@H]1C2` (relative stereo) [Example 229, 8-Dicyclo[2.2.1]hept-2-yl-2-(4-piperidin-1-yl-phenylamino)-8H-pyrido[2,3-d]pyrimidin-7-one], the IC50 came out at 996 nM in data set [3] (cdk2/A IC50, Table 1); 440 nM in data set [5]; 3000 nM in data set [4] (cdk2/E IC50, Table 1); 288 nM in data set [1] (Table 1); 2800 nM in data set [2] (Table 1, read-out: cdk4/D IC50).
Consider `CCn1c(=O)ccc2cnc(Nc3ccccc3)nc21` [Example 18, 8-Ethyl-2-phenylamino-8H-pyrido[2,3-d]pyrimidin-7-one], for which the melting point fell in the range of 203 to 204 °C. The compound further had an IC50 in data set [1] (Table 1) of 65 nM.
`O=c1ccc2cnc(Nc3ccccc3)nc2[nH]1` [Example 32, 2-Phenylamino-8H-pyrido[2,3-d]pyrimidin-7-one] came in with an IC50 in data set [1] (Table 1) of 1430 nM.
In the case of `CC(C)Cn1c(=O)ccc2cnc(Nc3ccccc3)nc21` [Example 42, 8-Isobutyl-2-phenylamino-8H-pyrido[2,3-d]pyrimidin-7-one], the melting point was 170 to 171 °C. The same compound displayed an IC50 in data set [1] (Table 1) of 15 nM.
Taken in the same sequence, the figures for `CCn1c(=O)ccc2cnc(Nc3ccc(OC)cc3)nc21` [Example 51, 8-Ethyl-2-(4-methoxyphenylamino)-8H-pyrido[2,3-d]pyrimidin-7-one] were 196 to 197 °C and 49 nM.
`CCN(CC)CCOc1ccc(Nc2ncc3ccc(=O)n(CC)c3n2)cc1` [Example 52, 2-[4-(2-Diethylaminoethoxy)-phenylamino]-8-ethyl-8H-pyrido[2,3-d]-pyrimidin-7-one] came in with a melting point of 128 to 129 °C. Also, in data set [1] (Table 1), the IC50 is 155 nM.
For `CCn1c(=O)ccc2cnc(Nc3ccc(N4CCN(C)CC4)cc3)nc21` [Example 53, 8-Ethyl-2-[4-(4-methylpiperazin-1-yl)-phenylamino]-8H-pyrido[2,3-d]-pyrimidin-7-one] the same measures were 185 to 186 °C and 239 nM.
Consider `CCn1c(=O)ccc2cnc(Nc3cccc(OC(F)(F)C(F)F)c3)nc21` [Example 54, 8-Ethyl-2-[3-(1,1,2,2-tetrafluoroethoxy)-phenylamino]-8H-pyrido[2,3-d]-pyrimidin-7-one], for which the melting point lay within 175 to 176 °C. The compound also showed an IC50 in data set [1] (Table 1) of 568 nM.
`CCn1c(=O)ccc2cnc(Nc3ccc(OCCOC)cc3)nc21` [Example 57, 8-Ethyl-2-[4-(2-methoxyethoxy)phenylamino]-8H-pyrido[2,3-d]pyrimidin-7-one] yielded a melting point of 169 to 171 °C. Moreover, the IC50 in data set [1] (Table 1) stood at 218 nM.
Turning to `CC(C)n1c(=O)ccc2cnc(Nc3ccc(N4CCN(C)CC4)cc3)nc21` [Example 60, 8-Isopropyl-2-[4-(4-methylpiperazin-1-yl)-phenylamino]-8H-pyrido[2,3-d]-pyrimidin-7-one], in data set [1] (Table 1), the IC50 amounted to 17 nM.
Take `CCN1C(=O)CCc2cnc(Nc3ccccc3)nc21` [Example 69, 8-Ethyl-2-phenylamino-5,8-dihydro-6H-pyrido[2,3-d]pyrimidin-7-one]: the melting point fell in the range of 146 to 147 °C. Also, the IC50 in data set [1] (Table 1) turned out to be 65 nM.
For the compound `CCn1c(=O)ccc2cnc(Nc3ccc(N4CCOCC4)cc3)nc21` [Example 79, 8-Ethyl-2-(4-morpholin-4-yl-phenylamino)-8H-pyrido[2,3-d]pyrimidin-7-one], the melting point was in the range of 227 to 228 °C. Moreover, in data set [1] (Table 1), the IC50 stood at 107 nM.
Taken in the same sequence, the figures for `CCn1c(=O)c(C)cc2cnc(Nc3ccccc3)nc21` [Example 83, 8-Ethyl-6-methyl-2-phenylamino-8H-pyrido[2,3-d]pyrimidin-7-one] were 178 to 180 °C and 587 nM.
For `CCn1c(=O)c(C)cc2cnc(Nc3ccc(N4CCN(C)CC4)cc3)nc21` [Example 84, 8-Ethyl-6-methyl-2-[4-(4-methyl-piperazin-1-yl)-phenylamino]-8H-pyrido[2,3-d]pyrimidin-7-one] the same measures were 198 to 200 °C and 765 nM.
For `CCn1c(=O)ccc2cnc(Nc3cccc(F)c3)nc21` [Example 89, 8-Ethyl-2-(3-fluorophenylamino)-8H-pyrido[2,3-d]pyrimidin-7-one] the same measures were 210 to 212 °C and 393 nM.
Compound `CCn1c(=O)ccc2cnc(Nc3ccc(OC)c(F)c3)nc21` [Example 90, 8-Ethyl-2-(3-fluoro-4-methoxyphenylamino)-8H-pyrido[2,3-d]pyrimidin-7-one] came in with a melting point of 196 to 198 °C. The IC50 in data set [1] (Table 1) came to 29 nM.
Compound `CCn1c(=O)ccc2cnc(Nc3cccc(F)c3OC)nc21` [Example 91, 8-Ethyl-2-(3-fluoro-2-methoxyphenylamino)-8H-pyrido[2,3-d]pyrimidin-7-one] gave a melting point of 92 to 93 °C. This compound also showed an IC50 in data set [1] (Table 1) of 4450 nM.
For `CCn1c(=O)ccc2cnc(Nc3ccccc3OC)nc21` [Example 92, 8-Ethyl-2-(2-methoxyphenylamino)-8H-pyrido[2,3-d]pyrimidin-7-one] the same measures were 126 to 128 °C and 1680 nM.
In turn, `O=c1ccc2cnc(Nc3ccccc3)nc2n1-c1ccccc1` [Example 101, 2-Phenylamino-8-phenyl-8H-pyrido[2,3-d]pyrimidin-7-one] returned an IC50 in data set [1] (Table 1) of 165 nM.
On to `CN(C)CCCN1CCN(c2ccc(Nc3ncc4ccc(=O)n(C5CCCCC5)c4n3)cc2)CC1` [Example 144], for which the IC50 was found to be 102 nM in data set [3] (read-out: cdk2/A IC50, Table 1); 344 nM in data set [5] (read-out: cdk1/B IC50, Table 1); 43 nM in data set [4] (read-out: cdk2/E IC50, Table 1); 39.4 nM in data set [1] (Table 1); 16 nM in data set [2] (Table 1, read-out: cdk4/D IC50).
`O=c1ccc2cnc(Nc3ccc(F)cc3)nc2n1C1CCCCC1` [Example 148, 8-Cyclohexyl-2-(4-fluoro-phenylamino)-8H-pyrido[2,3-d]pyrimidin-7-one] showed a melting point of 209 to 211 °C. This compound displayed an IC50 in data set [3] (cdk2/A IC50, Table 1) of 77.5 nM. This compound also came in with an IC50 in data set [5] of 1820 nM. For the same compound, the IC50 in data set [4] (cdk2/E IC50, Table 1) worked out at 53.5 nM. Also, in data set [2] (Table 1, read-out: cdk4/D IC50), the IC50 is 197 nM.
In the case of `O=c1ccc2cnc(Nc3ccc(N4CCCCC4)cc3)nc2n1C1CCCCCC1` [Example 163, 8-Cycloheptyl-2-(4-piperidin-1-yl-phenylamino)-8H-pyrido[2,3-d]primidin-7-one], the IC50 in data set [3] (read-out: cdk2/A IC50, Table 1) came out at 66.8 nM; in data set [5] (read-out: cdk1/B IC50, Table 1), 642 nM; in data set [4] (read-out: cdk2/E IC50, Table 1), 193 nM; in data set [1] (Table 1), 150 nM; in data set [2] (Table 1, read-out: cdk4/D IC50), 31.5 nM.
For the compound `O=c1ccc2cnc(Nc3ccc(SC(F)(F)F)cc3)nc2n1C1CC2CCC1C2` (stereo not shown) [Example 221, 8-Bicyclo[2.2.1]hept-2-yl-2-(4-trifluoromethylsuffanyl-phenylamino)-8H-pyrido[2,3-d]pyrimidin-7-one], the IC50 was 370 nM in data set [3] (read-out: cdk2/A IC50, Table 1); 1120 nM in data set [5] (read-out: cdk1/B IC50, Table 1); 511 nM in data set [4] (read-out: cdk2/E IC50, Table 1); 349 nM in data set [1] (Table 1); 320 nM in data set [2] (Table 1, read-out: cdk4/D IC50).
On to `O=c1ccc2cnc(Nc3ccc(N4CCCC(O)C4)cc3)nc2n1C1CC2CCC1C2` (stereo not shown) [Example 254], for which the IC50 in data set [3] (cdk2/A IC50, Table 1) was found to be 28 nM; in data set [5], 175 nM; in data set [4] (cdk2/E IC50, Table 1) it was 64 nM; in data set [1] (Table 1), 44.9 nM; in data set [2] (Table 1, read-out: cdk4/D IC50) it was 3.5 nM.
Regarding `CC1CN(c2ccc(Nc3ncc4ccc(=O)n(C5CC6CCC5C6)c4n3)cc2)CC(C)N1` (stereo not shown) [Example 255], the IC50 in data set [3] (read-out: cdk2/A IC50, Table 1) came to 67.5 nM; in data set [5] (read-out: cdk1/B IC50, Table 1), 335 nM; in data set [4] (read-out: cdk2/E IC50, Table 1), 124 nM; in data set [1] (Table 1), 32.1 nM; in data set [2] (Table 1, read-out: cdk4/D IC50) it was 3 nM.
`O=c1ccc2cnc(Nc3ccc(N4CCC(CCN5CCOCC5)CC4)cc3)nc2n1C1CCCCC1` [Example 258] registered a melting point of 245 to 246 °C. In data set [3] (cdk2/A IC50, Table 1), this compound had an IC50 of 73.3 nM. The compound also yielded an IC50 in data set [5] of 599 nM. The same compound had an IC50 in data set [4] (cdk2/E IC50, Table 1) of 200 nM. Also, the IC50 in data set [2] (Table 1, read-out: cdk4/D IC50) was 7.5 nM.
Turning to `CCC(CC)n1c(=O)ccc2cnc(Nc3ccccc3)nc21` [R′=H, R″=H, R2=1-ethylpropyl, 8-(1-Ethylpropyl)-2-phenylamino-8H-pyrido[2,3-d]pyrimidin-7-one], the IC50 was 127 nM in data set [3] (Cdk2/A IC50, Table 3); 200 nM in data set [4] (Cdk2/E IC50, Table 3); 8.7 nM in data set [1] (Table 3); 159 nM in data set [2] (Table 3, read-out: Cdk4 IC50).
